We go through 59 molecules from the METLIN SMRT retention time set (Domingo-Almenara et al. 2019).

The data set can be described thus: gradient 5% acetonitrile 3 min, to 50% in 2 min, to 85% in 15 min, held 3 min, 100 µL/min. The note with it: column: Zorbax Extend-C18 2.1 x 50 mm; eluents: water / acetonitrile, 0.1% formic acid. The essentials:
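Retention times come from adduct peaks that were picked computationally and then checked by hand. The standards, pure and pooled in mixtures of ~100 molecules, were run on a Zorbax Extend-C18 column (2.1 × 50 mm, 1.8 μm) at 100 μL/min with water and acetonitrile, each with 0.1% formic acid. Detection was by quadrupole time-of-flight mass spectrometry in positive and negative ionization mode, with a dead volume of 40 μL and a dwell volume of 900 μL.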
`CCOC(=O)c1c(C)[nH]c(CCC(=O)NCCN2CCCCC2C)c1C` (centres undefined) gave an RP-LC retention time of 618 s.

Molecule `COc1ccc(-c2nnc(SCc3ccc(Br)cc3)o2)cc1` showed an RP-LC retention time of 1170 s.

As to `CCOC(=O)c1cc(S(=O)(=O)N2CCCC2C(=O)N2CCC(Cc3ccccc3)CC2)cn1C` (centres undefined), the RP-LC retention time worked out at 1020 s.

With `C=CCn1c(C)c(CC(=O)NC(C)CC)c(=O)n2nc(-c3ccc(C)cc3)nc12` (centres undefined), the RP-LC retention time is 824 s.

For `Cc1ccc(NC(=O)C2CCN(S(=O)(=O)c3ccc4c(c3)sc(=O)n4C)CC2)nc1`, the RP-LC retention time came to 697 s.

Molecule `COCc1nc2cccnc2n1C1CCN(C(=O)Nc2cc(C)ccc2C)CC1` came in with an RP-LC retention time of 710 s.

In turn, `CN1CCN(CCCNC(=O)Cn2c3ccccc3c3cnn(C)c(=O)c32)CC1` returned an RP-LC retention time of 560 s.

In the case of `Cc1cccc(Sc2nccnc2N2CCC(C(=O)NC3CC3)CC2)c1`, the RP-LC retention time worked out at 886 s.

The molecule `O=C(Cn1ncc2c(N3CCN(c4ccccn4)CC3)ncnc21)Nc1ccccc1Br` displayed an RP-LC retention time of 608 s.

`CC1=C(c2ccc(C)c(C)c2)S(=O)(=O)N=C1N1CCC(C(=O)NC(C)Cc2ccco2)CC1` (centres undefined) gave an RP-LC retention time of 855 s.

`Fc1ccc(-c2noc(-c3ccc(N4CCC5(CC4)OCCO5)nc3)n2)cc1` came in with an RP-LC retention time of 1180 s.

As for `CCc1cc(C(=O)Nc2cc(C)ccc2C)nc2ccnn12`, the RP-LC retention time stood at 1140 s.

In turn, `CCNC(=O)c1ccc2c(c1)CCN2C(=O)CC` displayed an RP-LC retention time of 651 s.

`Cn1c(=O)sc2cc(S(=O)(=O)N3CCC(C(=O)Nc4ccc(F)cc4)CC3)ccc21`: the RP-LC retention time was 854 s.

With `Cc1nn(C)c2nc(OC(C)C(=O)NCc3cccs3)cc(-c3ccccc3)c12` (centres undefined), the RP-LC retention time stood at 1040 s.

On to `CCCOCCOC(=O)C1=C(C)NC2=C(C(=O)C(C(=O)OC)C(C)C2)C1c1cccc(F)c1` (centres undefined), for which the RP-LC retention time came out at 965 s.

On to `CCNC(=O)c1nc(C(=O)NCc2ccc(C)cc2)cs1`, for which the RP-LC retention time is 811 s.

In turn, `Cc1cccc(Nc2nc(C)c(C(=O)N3CCN(c4ccccc4)CC3)s2)n1` gave an RP-LC retention time of 884 s.

Regarding `Cc1cc2nn(CC(=O)N3CCC(C)CC3)c(=O)n2c(-c2cccc(Cl)c2)n1`, the RP-LC retention time turned out to be 894 s.

In turn, `Cc1nnc(-c2cn(CC(=O)NCCCc3ccccc3)c3ccccc23)o1` gave an RP-LC retention time of 827 s.

With `O=C(NCc1ccco1)C(=O)NCC1OCCN1C(=O)c1ccc(Cl)cc1` (centres undefined), the RP-LC retention time was determined as 705 s.

`Cc1nnc(-c2cn(CC(=O)NCc3cccc(Br)c3)c3ccccc23)o1` gave an RP-LC retention time of 838 s.

On to `COC(=O)N1CCc2ccc(F)cc2C1C(=O)NCc1cccnc1` (centres undefined), for which the RP-LC retention time was 554 s.

On to `Cc1cccc(N2CCN(C(=O)c3c(C)sc4ccn(C)c(=O)c34)CC2)c1`, for which the RP-LC retention time worked out at 769 s.

For the molecule `COc1ccc(N2CCN(C(=O)c3c(C)sc4ccn(C)c(=O)c34)CC2)cc1`, the RP-LC retention time was found to be 661 s.

`CCOc1ccc(CC(=O)N2CCCC2c2nc(-c3cccc(C)c3)no2)cc1` (centres undefined) came in with an RP-LC retention time of 1120 s.

Take `CCn1c(=O)n(CC)c2cc(NC3=C(C(N)=O)S(=O)(=O)c4ccccc43)ccc21`: the RP-LC retention time is 702 s.

In turn, `Cc1nc(-c2csc(S(=O)(=O)N3CCCC(C(=O)Nc4ccc(F)cc4F)C3)c2)no1` (centres undefined) came in with an RP-LC retention time of 952 s.

`O=C(O)c1cn(-c2ccc3c(c2)CCC3)nn1` registered an RP-LC retention time of 768 s.

As for `COc1cc(OC)cc(-c2nc(-c3nnn(Cc4ccccc4)c3C)no2)c1`, the RP-LC retention time worked out at 1060 s.

`O=S(=O)(Nc1ccc(F)c(F)c1)c1ccccc1-c1nc(-c2ccccc2)no1`: the RP-LC retention time is 1190 s.

Turning to `COc1cccc(CC(=O)NCC(=O)Nc2nc3ccccc3n2C)c1`, the RP-LC retention time was 645 s.

`Cc1c(-c2noc(C(=O)NCCCN3CCCC(C)C3)n2)oc2ccccc12` (centres undefined) had an RP-LC retention time of 722 s.

`CSc1ccc(-c2nc3ncccn3c2Nc2cccc(Cl)c2C)cc1` gave an RP-LC retention time of 968 s.

With `CCCC(=O)Nc1ccc2c(c1)N(C(=O)c1cccs1)CCC2`, the RP-LC retention time came to 801 s.

`COc1nc(N)nc2c1ncn2[C@@H]1O[C@H](CO)[C@@H](O)[C@@H]1O` showed an RP-LC retention time of 568 s.

In turn, `COc1ccccc1OCc1nc(-c2ccc3ncn(C(C)C)c3c2)no1` gave an RP-LC retention time of 729 s.

Regarding `COc1ccccc1-n1ncc2c(C(C)C)nnc(SCC(=O)NCc3ccco3)c21`, the RP-LC retention time worked out at 729 s.

`COc1cc(NC(=O)CN2CCN(Cc3ccccc3)C(=O)C2=O)cc(OC)c1OC` came in with an RP-LC retention time of 669 s.

`COc1cccc(OC)c1C(=O)Nc1ccc2c(c1)Sc1ncccc1C(=O)N2C` gave an RP-LC retention time of 706 s.

The molecule `CCn1cc(CC(=O)NCc2ccc(N3CCOCC3)cc2)c2cccnc21` gave an RP-LC retention time of 632 s.

`Cc1ccc(NC(=O)C2(CCO)CCN(c3ncccn3)C2)cc1` (centres undefined) gave an RP-LC retention time of 630 s.

Turning to `CC1=C(C(=O)N2CCOCC2)C(c2cccc(Br)c2)C2=C(CCCC2=O)N1` (centres undefined), the RP-LC retention time was 664 s.

In turn, `CN1CCc2ccccc2Cc2[nH]c3ccccc3c2CC1` had an RP-LC retention time of 738 s.

`O=C(CCNc1c(-c2ccccc2)nc2cnccn12)NCc1ccc(F)cc1` yielded an RP-LC retention time of 687 s.

Molecule `CC1Oc2ccccc2OC1C(=O)NCc1ccsc1` (centres undefined) gave an RP-LC retention time of 832 s.

In the case of `CSc1ccc(-c2nc3cnccn3c2Nc2ccc3c(c2)OCCO3)cc1`, the RP-LC retention time came out at 863 s.

`Cc1cc(C)n(-c2ccnc(N3CCC(C(=O)N4CCC5(CC4)OCCO5)CC3)n2)n1` came in with an RP-LC retention time of 712 s.

Regarding `CCOc1ccccc1NC(=O)Cn1c(=O)n(CC(N)=O)c(=O)c2oc3ccccc3c21`, the RP-LC retention time was found to be 704 s.

On to `Cc1cc(=O)n(CC(=O)Nc2ccccc2)c(N2CCc3ccccc3C2)n1`, for which the RP-LC retention time was determined as 765 s.

The molecule `Cc1ccc(S(=O)(=O)N2CCCC2c2nc(-c3ccc(Cl)cc3)no2)cc1F` (centres undefined) registered an RP-LC retention time of 1230 s.

Turning to `CCOC(=O)C(=O)NCc1nc(COc2ccc(OC)cc2)no1`, the RP-LC retention time was determined as 716 s.

`CCOc1cccc(-c2noc(Cn3ccn(-c4ccccc4)c(=O)c3=O)n2)c1` returned an RP-LC retention time of 858 s.

In the case of `COc1ccc(N2CC(c3nc(-c4ccc(Br)cc4)no3)CC2=O)cc1` (centres undefined), the RP-LC retention time came out at 1050 s.

In turn, `CCc1nc(OCC(=O)Nc2cc(OC)ccc2OC)c2ccccc2n1` showed an RP-LC retention time of 821 s.

Consider `Cc1cc(C)c(NC(=O)COc2cc(C(F)(F)F)c3c(C)nn(C)c3n2)c(C)c1`, for which the RP-LC retention time was 1060 s.

As for `CCOC(=O)CCNC(=O)NCc1nnnn1-c1ccc(C)c(C)c1`, the RP-LC retention time worked out at 663 s.

In turn, `CCc1noc(NC(C)=O)c1-c1ccc(C)c(S(=O)(=O)Nc2cc(Cl)ccc2C)c1` returned an RP-LC retention time of 891 s.

In turn, `COc1cccc(CNC(=O)N2CCCC2c2c(C)noc2C)c1` (centres undefined) registered an RP-LC retention time of 733 s.
